Test results published in patent US20120142750A1, “INDOLEAMINE 2,3-DIOXYGENASE PATHWAYS IN THE GENERATION OF REGULATORY T CELLS” (Regents of the University of Minnesota, priority 2005, published 2012).

Tested on: Tregs from draining lymph nodes
Test: Adoptive transfer of TDLN DCs and ex-vivo Treg assay
Format: in vivo, mouse
Details: sustained-release pellets; Tregs isolated after four days
Text: Adoptive transfer and ex-vivo Treg assay. The adoptive transfer model has been previously described (Munn et al., Immunit), 2005; 22:633-642; and Munn et al., J. Clin. Invest. 2004a; 114; 280-290). Briefly, DCs were sorted from TDLNs (total CD11c^+ cells), pulsed with […] (SEQ ID NO:1) peptide, and 5×10^4 DCs injected into anteriomedial thigh. For studies measuring ex vivo Treg suppressor activity, the recipient mice were pre-loaded with 5×10^6 sorted CD8^+ T-I cells. After four days, the inguinal LNs draining the site of DC injection were removed, and the CD4^+CD25^+ Tregs were isolated by FACS sorting. A titration of Tregs was added to readout assays, comprising CD4^+ A1 cells, CBA DCs, feeder layer, and H—Y peptide, all as described above. For CFSE proliferation studies, CD8^+ OT-I (wild-type or GCN2-KO background) were sorted, labeled with CFSE, and 5×10^6 cells injected intravenously into wild-type or GCN2-KO recipients. OVA-pulsed DCs from TDLNs were injected as above, and the inguinal (draining) LNs harvested after four days. LN cells were analyzed by FACS for CD8 vs 1B11 vs CFSE.

SMILES: Cn1cc(C[C@@H](N)C(=O)O)c2ccccc21 [Inhibitor 1MT, 1-methyl-D-tryptophan]
- ex vivo suppressor activity of Tregs from recipient mice given IDO+ DCs: did not develop ex vivo suppressor activity
